Reference: PubChem BioAssay (NCI)
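Results reflect a 48-hour exposure of cells in 96-well plates to compound at five concentrations. Definition used: TGI = concentration required for complete inhibition of growth.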

Key:
Experiment in all cases: NCI tumour cell line growth inhibition, 48 h
[1] = tested on: OVCAR-3 ovarian
[2] = tested on: SK-MEL-2 melanoma
[3] = tested on: KM12 colon
[4] = tested on: SK-OV-3 ovarian
[5] = tested on: HOP-62 NSCLC
[6] = tested on: NCI-H226 lung
[7] = tested on: PC-3 prostate
[8] = tested on: HS 578T breast
[9] = tested on: SNB-19 CNS
[10] = tested on: SN12C renal

Row | SMILES | TGI [1] | TGI [2] | TGI [3] | TGI [4] | TGI [5] | TGI [6] | TGI [7] | TGI [8] | TGI [9] | TGI [10]
1 | C/C(=C1\N=C(c2ccccc2)OC1=O)c1ccccc1 | > 100 µM | > 100 µM | > 100 µM | > 100 µM | > 100 µM | > 100 µM | > 100 µM | > 100 µM | > 100 µM | 
2 | O=C(O)c1c(CC(Cc2ccc3c(c2)CCC3)C(=O)O)ccc2c1CCC2 (stereo not drawn) | > 100 µM | > 100 µM | > 100 µM |  | > 100 µM | > 100 µM | > 100 µM | > 100 µM | > 100 µM | > 100 µM
3 | CCOP(=O)(/C=C/n1cc(C)c(=O)[nH]c1=O)OCC | > 100 µM | > 100 µM | > 100 µM | > 100 µM | > 100 µM | > 100 µM | > 100 µM |  | > 100 µM | > 100 µM
4 | CC(C)(C)C(=O)Nc1c(C=O)ccc2[nH]cnc12 | > 100 µM | > 100 µM | > 100 µM | > 100 µM | > 100 µM | > 100 µM | > 100 µM |  | > 100 µM | > 100 µM
5 | CC1OC(OC2C(O[C@H]3CC[C@@]4(C)C(=CC[C@H]5[C@@H]6C[C@@H]7O[C@]8(CC[C@@H](C)CO8)[C@@H](C)[C@@H]7[C@@]6(C)CC[C@@H]54)C3)OC(CO)C(O)C2OC2OC(CO)C(O)C(O)C2O)C(O)C(O)C1O (stereo partly drawn) | 2.69 µM | 3.45 µM | 4.49 µM | 3.19 µM | 4.21 µM |  | 3.55 µM | 3.74 µM | 3.46 µM | 
6 | CC(C)CCCC(C)[C@H]1CCC(C2C[C@@H](O)[C@@H]3CC(O)[C@@H](O)C[C@]3(CO)C2=O)[C@]1(C)CCO (stereo partly drawn) | 47.9 µM | 39.7 µM | 19.6 µM | 67.1 µM | 52.8 µM | > 73.8 µM |  |  | 96.3 µM | > 74.1 µM
7 | C=C(C)C1CC(=O)C(C)=C(O)C1 (stereo not drawn) |  | > 100 µM | > 100 µM | > 100 µM | > 100 µM | > 100 µM | > 100 µM | > 100 µM | > 100 µM | > 100 µM
8 | COC(=O)c1c2c(cc3c1CC1(Cc4cc5c(c(C=O)c4C1)CCC5)C3)CCC2 (stereo not drawn) | 99.2 µM | 72 µM |  | > 100 µM | > 100 µM |  | > 100 µM | > 100 µM | > 100 µM | 
9 | N#Cc1c(-c2ccc([N+](=O)[O-])cc2)c(C#N)c(=O)n(NS(=O)(=O)c2ccccc2)c1S |  | 60.8 µM | > 100 µM | > 100 µM | > 100 µM | > 100 µM | > 100 µM | 58.5 µM | > 100 µM | 34.9 µM
10 | FC1=C2C3CCC(C3)C2C1(F)F (stereo not drawn) | > 100 µM | > 100 µM | > 100 µM | > 100 µM | > 100 µM | > 100 µM | > 100 µM |  | > 100 µM | > 100 µM
11 | C/C(=N\Nc1nc2ccccc2s1)c1ccncn1 |  | 31.8 µM | 16.6 µM | > 32.1 µM | > 36.3 µM | 1.07 µM | > 43 µM | 26.2 µM | > 28.4 µM | 18 µM
12 | CC1=C(C)C(=O)C(C2=CC(=O)c3ccccc3C2=O)=C(C2=CC(=O)c3ccccc3C2=O)C1=O |  | 24.4 µM | 28.9 µM | 45.8 µM | 33.4 µM | 49.5 µM | 21.7 µM | > 100 µM | > 36.5 µM | 
